From PubChem BioAssay (NCI)
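Step 1: Grow cells in 96-well plates. Step 2: Expose to compound for 48 hours at 5 concentrations. Step 3: Interpolate endpoints linearly; if unreached, use highest concentration. Here, GI50 denotes the concentration required for 50% inhibition of growth. The concentration for full growth arrest is given as TGI.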

Legend:
Experiment in all cases: NCI tumour cell line growth inhibition, 48 h
786-0 renal = tested on: 786-0 renal
A498 renal = tested on: A498 renal
A549 NSCLC = tested on: A549 NSCLC
ACHN renal = tested on: ACHN renal
BT-549 breast = tested on: BT-549 breast
CAKI-1 renal = tested on: CAKI-1 renal
CCRF-CEM leukemia = tested on: CCRF-CEM leukemia
COLO 205 colon = tested on: COLO 205 colon
DU-145 prostate = tested on: DU-145 prostate
EKVX NSCLC = tested on: EKVX NSCLC
HCC-2998 colon = tested on: HCC-2998 colon
HCT-116 colon = tested on: HCT-116 colon
HCT-15 colon = tested on: HCT-15 colon
HL-60(TB) leukemia = tested on: HL-60(TB) leukemia
HOP-62 NSCLC = tested on: HOP-62 NSCLC
HOP-92 NSCLC = tested on: HOP-92 NSCLC
HS 578T breast = tested on: HS 578T breast
HT29 colon = tested on: HT29 colon
IGROV1 ovarian = tested on: IGROV1 ovarian
K-562 leukemia = tested on: K-562 leukemia
KM12 colon = tested on: KM12 colon
LOX IMVI melanoma = tested on: LOX IMVI melanoma
M14 melanoma = tested on: M14 melanoma
MALME-3M melanoma = tested on: MALME-3M melanoma
MCF7 breast = tested on: MCF7 breast
MDA-MB-231 breast = tested on: MDA-MB-231 breast
MDA-MB-435 = tested on: MDA-MB-435
MOLT-4 leukemia = tested on: MOLT-4 leukemia
NCI-H226 lung = tested on: NCI-H226 lung
NCI-H23 lung = tested on: NCI-H23 lung
NCI-H460 lung = tested on: NCI-H460 lung
NCI-H522 lung = tested on: NCI-H522 lung
NCI/ADR-RES ovarian = tested on: NCI/ADR-RES ovarian
OVCAR-3 ovarian = tested on: OVCAR-3 ovarian
OVCAR-4 ovarian = tested on: OVCAR-4 ovarian
OVCAR-5 ovarian = tested on: OVCAR-5 ovarian
OVCAR-8 ovarian = tested on: OVCAR-8 ovarian
PC-3 prostate = tested on: PC-3 prostate
RPMI-8226 leukemia = tested on: RPMI-8226 leukemia
RXF 393 renal = tested on: RXF 393 renal
SF-268 CNS = tested on: SF-268 CNS
SF-295 CNS = tested on: SF-295 CNS
SF-539 CNS = tested on: SF-539 CNS
SK-MEL-2 melanoma = tested on: SK-MEL-2 melanoma
SK-MEL-28 melanoma = tested on: SK-MEL-28 melanoma
SK-MEL-5 melanoma = tested on: SK-MEL-5 melanoma
SK-OV-3 ovarian = tested on: SK-OV-3 ovarian
SN12C renal = tested on: SN12C renal
SNB-19 CNS = tested on: SNB-19 CNS
SNB-75 CNS = tested on: SNB-75 CNS
SR leukemia = tested on: SR leukemia
SW-620 colon = tested on: SW-620 colon
T-47D breast = tested on: T-47D breast
TK-10 renal = tested on: TK-10 renal
U251 CNS = tested on: U251 CNS
UACC-257 melanoma = tested on: UACC-257 melanoma
UACC-62 melanoma = tested on: UACC-62 melanoma
UO-31 renal = tested on: UO-31 renal

COc1ccc(C(=O)COC(=O)[C@H](C[Se][Se]C[C@H](NC(=O)c2ccc(Br)cc2F)C(=O)OCC(=O)c2ccc(OC)cc2)NC(=O)c2ccc(Br)cc2F)cc1
GI50 (786-0 renal): 433 nM
TGI (786-0 renal): 1460 nM
GI50 (A498 renal): 896 nM
TGI (A498 renal): 8840 nM
GI50 (A549 NSCLC): 421 nM
TGI (A549 NSCLC): 3790 nM
GI50 (ACHN renal): 884 nM
TGI (ACHN renal): 2490 nM
GI50 (BT-549 breast): 860 nM
TGI (BT-549 breast): 2470 nM
GI50 (CAKI-1 renal): 1000 nM
TGI (CAKI-1 renal): 2970 nM
GI50 (CCRF-CEM leukemia): 2500 nM
TGI (CCRF-CEM leukemia): 11600 nM
GI50 (COLO 205 colon): 2560 nM
TGI (COLO 205 colon): 7950 nM
GI50 (DU-145 prostate): 843 nM
TGI (DU-145 prostate): 2680 nM
GI50 (EKVX NSCLC): 591 nM
TGI (EKVX NSCLC): 2350 nM
GI50 (HCC-2998 colon): 617 nM
TGI (HCC-2998 colon): 1850 nM
GI50 (HCT-116 colon): 949 nM
TGI (HCT-116 colon): 2780 nM
GI50 (HCT-15 colon): 1030 nM
TGI (HCT-15 colon): 2990 nM
GI50 (HL-60(TB) leukemia): 2720 nM
TGI (HL-60(TB) leukemia): 12200 nM
GI50 (HOP-62 NSCLC): 415 nM
TGI (HOP-62 NSCLC): 1830 nM
GI50 (HOP-92 NSCLC): 2040 nM
TGI (HOP-92 NSCLC): 5870 nM
GI50 (HS 578T breast): 362 nM
TGI (HS 578T breast): 966 nM
GI50 (HT29 colon): 879 nM
TGI (HT29 colon): 7480 nM
GI50 (IGROV1 ovarian): 820 nM
TGI (IGROV1 ovarian): 2620 nM
GI50 (K-562 leukemia): 3300 nM
TGI (K-562 leukemia): > 55000 nM
GI50 (KM12 colon): 376 nM
TGI (KM12 colon): 1550 nM
GI50 (LOX IMVI melanoma): 914 nM
TGI (LOX IMVI melanoma): 2320 nM
GI50 (M14 melanoma): 588 nM
TGI (M14 melanoma): 1850 nM
GI50 (MALME-3M melanoma): 2040 nM
TGI (MALME-3M melanoma): 4400 nM
GI50 (MCF7 breast): 1520 nM
TGI (MCF7 breast): 4100 nM
GI50 (MDA-MB-231 breast): 846 nM
TGI (MDA-MB-231 breast): 2770 nM
GI50 (MDA-MB-435): 1510 nM
TGI (MDA-MB-435): 5050 nM
GI50 (MOLT-4 leukemia): 2630 nM
TGI (MOLT-4 leukemia): 17800 nM
GI50 (NCI-H226 lung): 581 nM
TGI (NCI-H226 lung): 2070 nM
GI50 (NCI-H23 lung): 412 nM
TGI (NCI-H23 lung): 1810 nM
GI50 (NCI-H460 lung): 353 nM
TGI (NCI-H460 lung): 1310 nM
GI50 (NCI-H522 lung): 660 nM
TGI (NCI-H522 lung): 2020 nM
GI50 (NCI/ADR-RES ovarian): 399 nM
TGI (NCI/ADR-RES ovarian): 1390 nM
GI50 (OVCAR-3 ovarian): 880 nM
TGI (OVCAR-3 ovarian): 2310 nM
GI50 (OVCAR-4 ovarian): 1640 nM
TGI (OVCAR-4 ovarian): 3100 nM
GI50 (OVCAR-5 ovarian): 816 nM
TGI (OVCAR-5 ovarian): 2540 nM
GI50 (OVCAR-8 ovarian): 513 nM
TGI (OVCAR-8 ovarian): 1860 nM
GI50 (PC-3 prostate): 318 nM
TGI (PC-3 prostate): 1410 nM
GI50 (RPMI-8226 leukemia): 502 nM
TGI (RPMI-8226 leukemia): 5690 nM
GI50 (RXF 393 renal): 1560 nM
TGI (RXF 393 renal): 3190 nM
GI50 (SF-268 CNS): 943 nM
TGI (SF-268 CNS): 3210 nM
GI50 (SF-295 CNS): 211 nM
TGI (SF-295 CNS): 610 nM
GI50 (SF-539 CNS): 321 nM
TGI (SF-539 CNS): 976 nM
GI50 (SK-MEL-2 melanoma): 862 nM
TGI (SK-MEL-2 melanoma): 2570 nM
GI50 (SK-MEL-28 melanoma): 1590 nM
TGI (SK-MEL-28 melanoma): 5610 nM
GI50 (SK-MEL-5 melanoma): 596 nM
TGI (SK-MEL-5 melanoma): 2760 nM
GI50 (SK-OV-3 ovarian): 441 nM
TGI (SK-OV-3 ovarian): 1640 nM
GI50 (SN12C renal): 1040 nM
TGI (SN12C renal): 2490 nM
GI50 (SNB-19 CNS): 427 nM
TGI (SNB-19 CNS): 4900 nM
GI50 (SNB-75 CNS): 347 nM
TGI (SNB-75 CNS): 1260 nM
GI50 (SR leukemia): 478 nM
TGI (SR leukemia): 4820 nM
GI50 (SW-620 colon): 1440 nM
TGI (SW-620 colon): 3890 nM
GI50 (T-47D breast): 1730 nM
TGI (T-47D breast): 6030 nM
GI50 (TK-10 renal): 1230 nM
TGI (TK-10 renal): 3400 nM
GI50 (U251 CNS): 312 nM
TGI (U251 CNS): 1070 nM
GI50 (UACC-257 melanoma): 2250 nM
TGI (UACC-257 melanoma): 5310 nM
GI50 (UACC-62 melanoma): 1060 nM
TGI (UACC-62 melanoma): 2860 nM
GI50 (UO-31 renal): 579 nM
TGI (UO-31 renal): 1680 nM
